Measured values as given in PubChem BioAssay (NCI).
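Method: 48-hour compound exposure of cells in 96-well plates, five concentrations, linear interpolation of endpoints. GI50: concentration for 50% inhibition of growth. TGI: concentration producing complete growth inhibition.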

What was measured:
Assay in all cases: growth of human tumour cells (NCI), 48 h
[1] = system: NCI-H23 lung
[2] = system: IGROV1 ovarian
[3] = system: MCF7 breast
[4] = system: NCI-H226 lung
[5] = system: SNB-19 CNS
[6] = system: SR leukemia
[7] = system: HOP-92 NSCLC
[8] = system: OVCAR-4 ovarian
[9] = system: NCI-H460 lung
[10] = system: CCRF-CEM leukemia
[11] = system: SF-539 CNS
[12] = system: CAKI-1 renal
[13] = system: OVCAR-3 ovarian
[14] = system: HOP-62 NSCLC
[15] = system: HL-60(TB) leukemia
[16] = system: HS 578T breast
[17] = system: T-47D breast
[18] = system: DU-145 prostate
[19] = system: A549 NSCLC
[20] = system: COLO 205 colon
[21] = system: HCC-2998 colon
[22] = system: HT29 colon
[23] = system: HCT-116 colon
[24] = system: MDA-MB-435
[25] = system: TK-10 renal
[26] = system: NCI-H522 lung
[27] = system: U251 CNS
[28] = system: BT-549 breast
[29] = system: A498 renal
[30] = system: MALME-3M melanoma
[31] = system: KM12 colon
[32] = system: SF-268 CNS
[33] = system: LOX IMVI melanoma
[34] = system: HCT-15 colon
[35] = system: M14 melanoma
[36] = system: UACC-62 melanoma
[37] = system: UO-31 renal
[38] = system: SN12C renal
[39] = system: RXF 393 renal
[40] = system: SK-MEL-28 melanoma
[41] = system: UACC-257 melanoma
[42] = system: PC-3 prostate
[43] = system: SNB-75 CNS
[44] = system: 786-0 renal
[45] = system: ACHN renal
[46] = system: MOLT-4 leukemia
[47] = system: SK-OV-3 ovarian
[48] = system: SK-MEL-2 melanoma
[49] = system: SK-MEL-5 melanoma
[50] = system: MDA-MB-231 breast
[51] = system: OVCAR-5 ovarian
[52] = system: K-562 leukemia
[53] = system: SF-295 CNS
[54] = system: SW-620 colon
[55] = system: NCI/ADR-RES ovarian
[56] = system: OVCAR-8 ovarian
[57] = system: EKVX NSCLC
[58] = system: RPMI-8226 leukemia

COc1ccc2c(c1)C(=O)/C(=C/c1cccc(OCC(=O)Nc3nc4c(s3)CCCC4)c1)O2
GI50 [1]: 0.636 µM | TGI [1]: 5.62 µM | GI50 [2]: < 0.0153 µM | TGI [2]: 0.054 µM | GI50 [3]: 2.83 µM | TGI [3]: 11.8 µM | GI50 [4]: 11.3 µM | TGI [4]: 42.1 µM | GI50 [5]: 13.9 µM | TGI [5]: 30.4 µM | GI50 [6]: 0.156 µM | TGI [6]: 0.351 µM | GI50 [7]: 0.18 µM | TGI [7]: 0.372 µM | GI50 [8]: 2.57 µM | TGI [8]: 8.52 µM | GI50 [9]: 3.48 µM | TGI [9]: 13.4 µM | GI50 [10]: 0.863 µM | TGI [10]: > 100 µM | GI50 [11]: 1.32 µM | TGI [11]: 2.69 µM | GI50 [12]: 0.383 µM | TGI [12]: 0.804 µM | GI50 [13]: 0.304 µM | TGI [13]: 0.865 µM | GI50 [14]: 0.29 µM | TGI [14]: 10.4 µM | GI50 [15]: 0.241 µM | TGI [15]: 0.681 µM | GI50 [16]: 2.28 µM | TGI [16]: 10.1 µM | GI50 [17]: 1.93 µM | TGI [17]: 4.34 µM | GI50 [18]: 0.499 µM | TGI [18]: 1.22 µM | GI50 [19]: 3.31 µM | TGI [19]: 18.5 µM | GI50 [20]: 0.729 µM | TGI [20]: 2.02 µM | GI50 [21]: 1.83 µM | TGI [21]: 3.44 µM | GI50 [22]: 0.642 µM | TGI [22]: 1.8 µM | GI50 [23]: 1.13 µM | TGI [23]: 2.34 µM | GI50 [24]: 2.59 µM | TGI [24]: 9.42 µM | GI50 [25]: 0.45 µM | TGI [25]: 0.934 µM | GI50 [26]: 0.704 µM | TGI [26]: 2.25 µM | GI50 [27]: 0.772 µM | TGI [27]: 4.97 µM | GI50 [28]: 1.74 µM | TGI [28]: 4.49 µM | GI50 [29]: 14.3 µM | TGI [29]: 27.7 µM | GI50 [30]: 0.8 µM | TGI [30]: 2.86 µM | GI50 [31]: 0.72 µM | TGI [31]: 4.09 µM | GI50 [32]: 0.314 µM | TGI [32]: 1.08 µM | GI50 [33]: 0.0248 µM | TGI [33]: 0.066 µM | GI50 [34]: 1.54 µM | TGI [34]: 3.19 µM | GI50 [35]: 1.81 µM | TGI [35]: 4.51 µM | GI50 [36]: 5.23 µM | TGI [36]: 18.4 µM | GI50 [37]: 0.0544 µM | TGI [37]: 0.101 µM | GI50 [38]: 1.63 µM | TGI [38]: 6.81 µM | GI50 [39]: 0.583 µM | TGI [39]: 1.58 µM | GI50 [40]: 1.58 µM | TGI [40]: 3.22 µM | GI50 [41]: 11.2 µM | TGI [41]: 24.4 µM | GI50 [42]: 0.285 µM | TGI [42]: 1.01 µM | GI50 [43]: 1.75 µM | TGI [43]: 12 µM | GI50 [44]: 0.15 µM | TGI [44]: 0.346 µM | GI50 [45]: 1.47 µM | TGI [45]: 2.79 µM | GI50 [46]: 0.93 µM | TGI [46]: > 100 µM | GI50 [47]: 11.8 µM | TGI [47]: 25.1 µM | GI50 [48]: 0.577 µM | TGI [48]: 1.34 µM | GI50 [49]: 6.08 µM | TGI [49]: 19.4 µM | GI50 [50]: 1.18 µM | TGI [50]: 5.38 µM | GI50 [51]: 1.69 µM | TGI [51]: 3.61 µM | GI50 [52]: 1 µM | TGI [52]: > 23 µM | GI50 [53]: 3.7 µM | TGI [53]: 15.8 µM | GI50 [54]: 0.805 µM | TGI [54]: 2.07 µM | GI50 [55]: 2.12 µM | TGI [55]: 6.37 µM | GI50 [56]: 1.3 µM | TGI [56]: 8.71 µM | GI50 [57]: 2.52 µM | TGI [57]: 8.73 µM

CC1=NN(c2nc(N)nc(CCl)n2)CC1
TGI [1]: 41.2 µM | TGI [2]: 25.9 µM | TGI [3]: > 100 µM | TGI [4]: > 100 µM | TGI [5]: > 100 µM | TGI [6]: 61.7 µM | TGI [7]: 38.7 µM | TGI [58]: > 100 µM | TGI [8]: 32.2 µM | TGI [9]: 48.8 µM | TGI [10]: 43.3 µM | TGI [11]: 57.9 µM | TGI [12]: 21.4 µM | TGI [13]: 35.3 µM | TGI [14]: 29.4 µM | TGI [15]: 40 µM | TGI [16]: > 100 µM | TGI [17]: > 100 µM | TGI [18]: > 100 µM | TGI [19]: > 100 µM | TGI [20]: 36.3 µM | TGI [21]: > 100 µM | TGI [22]: > 100 µM | TGI [23]: 87.4 µM | TGI [24]: > 100 µM | TGI [25]: > 100 µM | TGI [26]: 4.91 µM | TGI [27]: > 100 µM | TGI [28]: > 100 µM | TGI [29]: > 100 µM | TGI [31]: 55.3 µM | TGI [32]: > 100 µM | TGI [34]: 43.6 µM | TGI [35]: 80.4 µM | TGI [36]: 31 µM | TGI [37]: 20.5 µM | TGI [38]: > 100 µM | TGI [39]: > 100 µM | TGI [40]: 56.4 µM | TGI [41]: > 100 µM | TGI [42]: > 100 µM | TGI [43]: 74.1 µM | TGI [44]: 23 µM | TGI [45]: 38.5 µM | TGI [46]: 68.9 µM | TGI [47]: > 100 µM | TGI [48]: > 100 µM | TGI [49]: 32.2 µM | TGI [50]: > 100 µM | TGI [51]: 57.4 µM | TGI [52]: 32.7 µM | TGI [53]: > 100 µM | TGI [54]: 76.4 µM | TGI [55]: 74.1 µM | TGI [56]: 48.6 µM | TGI [57]: 35.8 µM
